{
  "source": "patent EP3381906A1",
  "about": "“COMPOUNDS FOR USE AS HEPARANASE INHIBITORS” (Leadiant Biosciences SA, priority 2017, dated 2018)",
  "key": {"FGF-2": {"system": "FGF-2", "assay": "Real-Time Quantitative PCR of pro-angiogenic genes in HT1080 cells", "assay_type": "cell-based, human", "details": "24 h, Conc 10.0 uM", "method": "(§1) To evaluate the effect of heparanase inhibitors on the tumor transcription of genes encoding for proangiogenic factors, such as FGF1/2, VEGF, MMP-9, HSPE-1, the relative mRNA levels were analyzed by quantitative Real-Time Quantitative PCR. To perform the assay, HT1080 (human fibrosarcoma) cells were cultured in complete medium containing 10%FCS (fetal calf serum). Cells were plated in 24-well plates and treated at fixed concentration (i.e., highest non-toxic concentration) of test compounds. After 24 h, cells were detached, collected and total RNA extracted by RNeasy Mini Kit (QIAGEN). Following reverse transcription step, FGF1/2, VEGF, MMP-9, HSPE-1 mRNA levels, were quantified by qPCR using the advanced Universal SYBR Green Supermix (Bio Rad) and ABI PRISM 7900HT Thermal Cycler System (Perkin Elmer), according to the manufacturer's instructions. Appropriate no-RT and non-template controls were included in each 96-well PCR reaction, and dissociation analysis was performed at the end of each run to confirm the specificity of the reaction. Relative levels of RNA were calculated using the ddCt method. Standard curve and sample data were run in duplicate. In the Table a mean value is reported."}, "MMP-9": {"system": "MMP-9", "assay": "Real-Time Quantitative PCR of pro-angiogenic genes in HT1080 cells", "assay_type": "cell-based, human", "details": "24 h, Conc 10.0 uM", "method": "as §1"}, "VEGF": {"system": "VEGF", "assay": "Real-Time Quantitative PCR of pro-angiogenic genes in HT1080 cells", "assay_type": "cell-based, human", "details": "24 h, Conc 10.0 uM", "method": "as §1"}, "FGF-1": {"system": "FGF-1", "assay": "Real-Time Quantitative PCR of pro-angiogenic genes in HT1080 cells", "assay_type": "cell-based, human", "details": "24 h, Conc 10.0 uM", "method": "as §1"}, "[1]": {"system": "HT1080 (human fibrosarcoma)", "assay": "Cell adhesion assay on matrigel coated wells", "assay_type": "cell-based", "details": "HT1080, Conc. 10 µM; percent of adhesion with respect to the control (100%)", "method": "Cell surface, non-integrin molecules such as heparan sulfate proteoglycans (HSPGs) may be involved in the regulation of early adhesive stages of cell-ECM interactions. A cell adhesion assay has been employed to determine if the newly designed heparanase inhibitors were able to interfere with adhesion properties of cancer cells.\nHT1080 (human fibrosarcoma) cells were treated for 18-20 h with test compounds in complete medium supplemented with 10% FCS. Then cells were collected, washed in complete medium, and added to matrigel coated wells in triplicate, at previously identified optimal seeding density, and incubated at 37 °C in complete medium for times ranging from 15 minutes to 4h, according to the cell line. After incubation, the wells were washed three times with serum-free medium and the remaining firmly attached cells were stained with crystal-violet 0.1%. Optical density was measured at 560 nm by Victor 3 (Perkin-Elmer) plate analyzer. Each experiment was repeated three times."}, "[2]": {"system": "HT1080 (human fibrosarcoma)", "assay": "Matrigel cell invasion assay", "assay_type": "cell-based", "details": "HT-1080, HT1080, Conc. 10 µM", "method": "Heparanase inhibitors were then evaluated for their activity on the invasive potential of HT1080 (human fibrosarcoma) human cell lines, using the Matrigel cell invasion assay which allows to assess the cell invasion ability of malignant and normal cells.\nInvasion assay was performed using BioCoat cell culture inserts (BioCoat 8.0µm PET Membrane 24 Well Permeable Supports, Corning). Filters were coated with 100 µl of 300 µg/ml Matrigel dissolved in coating buffer (0.01M Tris pH 8.0, 0.7% NaCl) (Becton-Dickinson Sciences). DMEM (Dulbecco's Modified Eagle's Medium) containing 5% FBS was added to the lower chambers. Cells were pre-treated with heparanase inhibitors for 24 h, detached and added to the upper chambers in media containing the inhibitors. Cells were allowed to invade for 24 h at 37°C in a CO2 incubator and then unmigrated cells were removed from the upper chamber with a cotton swab. The invading cells were fixed, stained with 0.1% crystal violet for 10 min at room temperature, photographed and counted under inverted microscope.\nTest compounds were analyzed at fixed concentration for several fields, in duplicates. Activity of test compounds was compared to the reference compound. Activity of most interesting compound was confirmed in a second cell invasion assay. Data were expressed as the percent invasion with respect to cell migration through uncoated insert membrane. (Table 5)"}, "U87MG": {"system": "U87MG", "assay": "Cell adhesion assay on matrigel coated wells", "assay_type": "cell-based, human", "details": "Conc. 10 µM, percent of adhesion with respect to the control (100%)"}, "heparanase": {"target": "T1, heparanase (Homo sapiens, UniProt Q9Y251)", "T1 construct": "100 µM fondaparinux, 2.5 nM heparanase and serial dilutions of test compounds", "T1 sequence (Q9Y251 158-543 limits assumed)": "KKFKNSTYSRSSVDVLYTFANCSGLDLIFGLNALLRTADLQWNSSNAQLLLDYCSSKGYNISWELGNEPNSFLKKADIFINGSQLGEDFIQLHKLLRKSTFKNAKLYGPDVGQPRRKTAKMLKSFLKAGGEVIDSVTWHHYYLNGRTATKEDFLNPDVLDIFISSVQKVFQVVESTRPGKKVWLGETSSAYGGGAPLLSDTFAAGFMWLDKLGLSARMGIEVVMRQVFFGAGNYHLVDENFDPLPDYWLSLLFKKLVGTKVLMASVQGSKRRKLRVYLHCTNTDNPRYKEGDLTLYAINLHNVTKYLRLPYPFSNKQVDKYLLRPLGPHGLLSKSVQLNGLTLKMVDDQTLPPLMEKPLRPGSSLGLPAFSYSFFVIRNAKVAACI", "T1 sequence (Q9Y251 36-109 limits assumed)": "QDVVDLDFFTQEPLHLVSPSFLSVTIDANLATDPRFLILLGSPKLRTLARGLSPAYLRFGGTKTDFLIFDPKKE", "assay": "AGA*IA assay: heparanase-catalyzed fondaparinux cleavage, colorimetric (WST-1)", "assay_type": "biochemical", "details": "2.5 nM heparanase, 100 µM fondaparinux, pH 5.0, 3 h at 37°C; class symbols; read-out: AGAIA assay (IC50)", "method": "All compounds were tested in a simple, accurate and robust microplate assay based on the cleavage of the synthetic heparin fragment, the pentasaccharide Fondaparinux (AGA*IA). This assay was originally developed by Hammond and coworkers [Hammond E, Li CP, Ferro V. Development of a colorimetric assay for heparanase activity suitable for kinetic analysis and inhibitor screening. […] Fondaparinux is cleaved by heparanase to generate a reducing disaccharide, which can be quantitatively measured via a colorimetric or a fluorescence assay, the last by the fluorescent sensor polymer-H [Schiemann S, Lühn S, Alban S. Development of both colorimetric and fluorescence heparinase activity assays using fondaparinux as substrate.\nThe assay measures the appearance of the disaccharide product of heparanase-catalyzed fondaparinux cleavage colorimetrically using the tetrazolium salt WST-1. Assay was essentially performed as described with minor modifications. Briefly, NUNC ELISA 96-well plates were pre-treated with a solution of 4% BSA (bovin serum albumin) in phosphate-buffered saline containing 0.05% Tween 20 (PBST), for 2 h at 37°C, then washed three times with PBST, dried by tapping on paper towel and stored at -20°C. Before use, once again, the plates were washed with PBST.\nThen, the absorbance at 560 nm was measured through a microplate reader (Victor 3, Perkin Elmer).\nFinally, the measurements were corrected by subtracting both the reagent background and the inner absorbance value of test compound."}, "U2OS": {"system": "U2OS", "assay": "Matrigel cell invasion assay", "assay_type": "cell-based, human", "set-up": "key to Invasion Assay Inhibition (%) U2OS: +++: > 90%; ++: 50-90 %; +: < 50%; -: Not active", "details": "Conc. 10 µM"}},
  "data": [
    {"smiles": "COc1cc(N=Nc2cc(S(=O)(=O)O)cc3cc(S(=O)(=O)O)cc(O)c23)c(C)cc1NC(=O)Nc1cc(C)c(N=Nc2cc(S(=O)(=O)O)cc3cc(S(=O)(=O)O)cc(O)c23)cc1OC", "note": "[SST0597]", "values": [
      {"measurement": "Gene Expression (% mRNA vs. control) FGF-2", "setting": "FGF-2", "value": "∼ 82%"},
      {"measurement": "Gene Expression (% mRNA vs. control) MMP-9", "setting": "MMP-9", "value": "∼ 69%"},
      {"measurement": "Gene Expression (% mRNA vs. control) VEGF", "setting": "VEGF", "value": "∼ 100%"},
      {"measurement": "Gene Expression (% mRNA vs. control) FGF-1", "setting": "FGF-1", "value": "∼ 100%"},
      {"measurement": "Adhesion Assay (%) HT1080", "setting": "[1]", "value": "∼ 85%"},
      {"measurement": "inhibition at 10 µM", "setting": "[2]", "value": "> 90", "unit": "%"},
      {"measurement": "Adhesion Assay (%) U87MG", "setting": "U87MG", "value": "∼ 23%"},
      {"measurement": "IC50", "setting": "heparanase", "value": "50 to 490", "unit": "nM"},
      {"measurement": "Invasion Assay Inhibition (%) U2OS", "setting": "U2OS", "value": "-"}
    ]}
  ]
}
